Consider 10 compounds from patent US20040053822A1, “Inducing cellular immune responses to mage2/3 using peptide and nucleic acid compositions” (priority 2002, published 2004).

The target in one test is HLA-A*0301 (Homo sapiens, UniProt P04439). In words: Purified HLA class I peptide binding assay, A*0301. Particulars: binding affinity, HLA-A3 supermotif-bearing peptides.
The target of the next test is HLA-A*3301 (Homo sapiens, UniProt P04439, A270S/D185E/E176V/E277Q/E87N/F33T/G231S/H175R/I121M/I218V/I322F/K168Q/K210R/L300P/L318F/M331R/P217A/Q86R/Q94H/R138Q/T323A/T345S/T97I/V358M/Y195H). In words: Purified HLA class I peptide binding assay, A*3301. Particulars: binding affinity, HLA-A3 supermotif-bearing peptides.
Another test deals with HLA-A*3101 (Homo sapiens, UniProt P04439, A270S/D185E/E176V/E277Q/F33T/G231S/G80R/H175R/I121M/I218V/I322F/K168Q/L300P/L318F/M331R/P217A/Q94H/R138Q/T323A/T345S/T97I/V358M). In words: Purified HLA class I peptide binding assay, A*3101. Particulars: binding affinity, HLA-A3 supermotif-bearing peptides.
In another test the target is HLA-A*6801 (Homo sapiens, UniProt P04439, A269V/D185E/E176V/E277Q/E87N/F33Y/G231S/I121M/I166T/I218V/L180W/L300P/L318F/N151K/P208A/P217A/Q86R/R169H/T345S). In words: Purified HLA class I peptide binding assay, A*6801. Particulars: binding affinity, HLA-A3 supermotif-bearing peptides.
Another test deals with HLA-A*1101 (Homo sapiens, UniProt P04439, A114D/D185E/E176A/F33Y/L180Q/S129P/T187R). In words: Purified HLA class I peptide binding assay, A*1101. Particulars: binding affinity, HLA-A3 supermotif-bearing peptides.
Another test addresses HLA-A*0203 (Homo sapiens, UniProt P04439, A173T/D140Y/D185E/D98H/E277Q/G131W/G231S/I119V/I121R/I166T/I218V/L180W/L300P/L318F/N151K/N90K/P208A/P217A/Q86G/Q94H/R138H/R169H/T345S). In words: Purified HLA class I peptide binding assay, A*0203. Particulars: binding affinity, A2 supermotif peptides and analogs.
The next test has as its target HLA-A*0202 (Homo sapiens, UniProt P04439, D140Y/D185E/D98H/E176V/E277Q/G131W/G231S/I119L/I121R/I166T/I218V/L180W/L300P/L318F/N151K/N90K/P208A/P217A/Q67R/Q86G/Q94H/R138H/R169H/T345S). In words: Purified HLA class I peptide binding assay, A*0202. Particulars: binding affinity, A2 supermotif peptides and analogs.
A further test addresses HLA-A*6802 (Homo sapiens, UniProt P04439, A269V/D140Y/D185E/E176V/E277Q/E87N/F33Y/G231S/I121R/I166T/I218V/L180W/L300P/L318F/N151K/P208A/P217A/Q86R/R138H/R169H/S129P/T345S/V36M). In words: Purified HLA class I peptide binding assay, A*6802. Particulars: binding affinity, A2 supermotif peptides and analogs.
A further test concerns the target HLA-A*0206 (Homo sapiens, UniProt P04439, D140Y/D185E/D98H/E176V/E277Q/F33Y/G131W/G231S/I119V/I121R/I166T/I218V/L300P/L318F/N151K/N90K/P208A/P217A/Q86G/Q94H/R138H/R169H/T345S). In words: Purified HLA class I peptide binding assay, A*0206. Particulars: binding affinity, A2 supermotif peptides and analogs.
The next test deals with HLA-A*0201 (Homo sapiens, UniProt P04439, D140Y/D185E/D98H/E176V/E277Q/G131W/G231S/I119V/I121R/I166T/I218V/L300P/L318F/N151K/N90K/P208A/P217A/Q86G/Q94H/R138H/R169H/T345S). In words: Purified HLA class I peptide binding assay, A*0201. Particulars: binding affinity, A2 supermotif peptides and analogs.
A further test concerns the target HLA-DRB1*0401 (DR4w4) (Homo sapiens, UniProt P01903+P01911, A100K/A169T/F76Y/I96L/K127E/L162R/M171V/N62H/P40V/Q125Y/R42H/S133A/S149N/S66Y/V115G/V209L/W38E). In words: Purified HLA class II peptide binding assay, DRB1*0401.
Test [1] deals with peptide-specific CTL from PBMC. In words: CTL immunogenicity of A3, B7 supermotif and A1, A24 motif peptides (methodology analogous to A2). It counts as cell-based, human. Particulars: positive/tested.
Description: HLA-A3 supermotif-bearing cross-reactive binding peptides are also evaluated for immunogenicity using methodology analogous for that used to evaluate the immunogenicity of the HLA-A2 supermotif peptides.
Analogous methodology, as appreciated by one of ordinary skill in the art, is employed to determine immunogenicity of peptides bearing HLA class I motifs and/or supermotifs set out herein.

Broadly, the IC50 is the concentration that inhibits the measured activity by half. Low values mean higher potency, high ones lower potency. Turning to `CC[C@H](C)[C@H](NC(=O)[C@H](CC(C)C)NC(=O)[C@H](C)N)C(=O)N[C@@H](CCC(=O)O)C(=O)N[C@H](C(=O)N[C@@H](CO)C(=O)N[C@@H](Cc1ccc(O)cc1)C(=O)N[C@H](C(=O)N[C@@H](CCCCN)C(=O)O)C(C)C)[C@@H](C)O`, the IC50 at HLA-A*0301 was 136 nM; on HLA-A*3301, over 10000 nM; at HLA-A*3101, 900 nM; on HLA-A*6801, 286 nM; at HLA-A*1101, 32 nM.

In the case of `CC[C@H](C)[C@H](NC(=O)[C@H](CC(C)C)NC(=O)[C@H](C)N)C(=O)N[C@@H](CCC(=O)O)C(=O)N[C@H](C(=O)N[C@@H](CO)C(=O)N[C@@H](Cc1ccc(O)cc1)C(=O)N[C@H](C(=O)N[C@@H](CCCCN)C(=O)N[C@H](C(=O)O)C(C)C)C(C)C)[C@@H](C)O`, the IC50 was determined as 125 nM on HLA-A*0203, 729 nM at HLA-A*0202, 3080 nM on HLA-A*6802 and 1950 nM on HLA-A*0206.

Consider `CC[C@H](C)[C@H](NC(=O)[C@H](Cc1ccc(O)cc1)NC(=O)[C@H](CC(C)C)NC(=O)[C@@H](N)Cc1c[nH]cn1)C(=O)N[C@@H](Cc1ccccc1)C(=O)N[C@@H](C)C(=O)N[C@H](C(=O)N[C@@H](CS)C(=O)N[C@@H](CC(C)C)C(=O)NCC(=O)N[C@@H](CC(C)C)C(=O)O)[C@@H](C)O`, for which the IC50 on HLA-A*0203 is 769 nM; on HLA-A*6802, 4490 nM; on HLA-A*0206, over 10000 nM; on HLA-A*0201 it was 56 nM.

For `CC[C@H](C)[C@H](NC(=O)[C@@H](N)CCCCN)C(=O)N[C@@H](Cc1c[nH]c2ccccc12)C(=O)N[C@@H](CCC(=O)O)C(=O)N[C@@H](CCC(=O)O)C(=O)N[C@@H](CC(C)C)C(=O)N[C@@H](CO)C(=O)N[C@@H](CCSC)C(=O)N[C@@H](CC(C)C)C(=O)O`, the 50% inhibitory concentration (IC50) at HLA-A*0203 is 175 nM; at HLA-A*0202, 642 nM; at HLA-A*6802, over 10000 nM; on HLA-A*0201, 167 nM.

For `CC(C)C[C@H](NC(=O)[C@H](Cc1ccccc1)NC(=O)[C@H](Cc1c[nH]cn1)NC(=O)[C@@H](NC(=O)[C@H](CC(C)C)NC(=O)[C@H](CCC(=O)O)NC(=O)[C@H](C)NC(=O)[C@H](CC(C)C)NC(=O)[C@@H](N)CCCCN)C(C)C)C(=O)O`, the IC50 came to 5.9 nM on HLA-A*0203, 6 nM on HLA-A*0202, 400 nM on HLA-A*6802 and 20 nM at HLA-A*0201.

Turning to `CC(C)C[C@H](NC(=O)[C@H](CCC(=O)O)NC(=O)[C@H](C)NC(=O)[C@H](CC(C)C)NC(=O)[C@@H](N)CCCCN)C(=O)N[C@H](C(=O)N[C@@H](Cc1c[nH]cn1)C(=O)N[C@@H](Cc1ccccc1)C(=O)N[C@H](C(=O)O)C(C)C)C(C)C`, the IC50 on HLA-A*0203 was found to be 22 nM; on HLA-A*0202, 13 nM; at HLA-A*6802 it was 73 nM; on HLA-A*0206 it was 15 nM.

In the case of `CSCC[C@H](NC(=O)[C@@H](N)CCCCN)C(=O)N[C@@H](C)C(=O)N[C@@H](CCC(=O)O)C(=O)N[C@@H](CC(C)C)C(=O)N[C@H](C(=O)N[C@@H](Cc1c[nH]cn1)C(=O)N[C@@H](Cc1ccccc1)C(=O)N[C@@H](CC(C)C)C(=O)O)C(C)C`, the IC50 on HLA-A*0202 was 6.7 nM; at HLA-A*6802, 286 nM; at HLA-A*0206, 26 nM; at HLA-A*0201, 24 nM.

Regarding `CSCC[C@H](NC(=O)[C@@H](N)CCCCN)C(=O)N[C@@H](C)C(=O)N[C@@H](CCC(=O)O)C(=O)N[C@@H](CC(C)C)C(=O)N[C@H](C(=O)N[C@@H](Cc1c[nH]cn1)C(=O)N[C@@H](Cc1ccccc1)C(=O)N[C@H](C(=O)O)C(C)C)C(C)C`, the IC50 at HLA-A*6802 was 170 nM; on HLA-A*0206, 39 nM; at HLA-A*0201, 26 nM.

Consider `CC[C@H](C)[C@H](NC(=O)[C@H](C)NC(=O)[C@@H](NC(=O)[C@@H](NC(=O)[C@H](C)NC(=O)[C@H](CC(C)C)NC(=O)[C@@H](NC(=O)[C@@H](NC(=O)[C@@H](NC(=O)[C@H](CC(C)C)NC(=O)[C@@H](N)CC(C)C)[C@@H](C)CC)[C@@H](C)CC)C(C)C)[C@@H](C)CC)[C@@H](C)CC)C(=O)N[C@@H](CCC(=O)O)C(=O)NCC(=O)N[C@@H](CC(=O)O)C(=O)N[C@@H](CS)C(=O)O`, for which the IC50 on HLA-DRB1*0401 (DR4w4) is 3750 nM.

As for `CC[C@H](C)[C@H](NC(=O)[C@@H](NC(=O)[C@@H](N)[C@@H](C)O)[C@@H](C)O)C(=O)N[C@@H](CC(N)=O)C(=O)N[C@@H](Cc1ccc(O)cc1)C(=O)N[C@H](C(=O)N[C@@H](CC(C)C)C(=O)N[C@@H](Cc1c[nH]c2ccccc12)C(=O)N[C@@H](CCCNC(=N)N)C(=O)O)[C@@H](C)O`, the “CTL Tumor” value in test [1] (CTL recognition of tumor targets) is given as 2/5. In addition, in test [1] (CTL recognition of wild-type peptide), the “CTL Wild-type” value is 7/7.
